Where a SMILES comes first, the peptide text is derived from it. Where no end group is shown, it is not given here.
Experiments:
XOD = biological target: T1, XOD (Bos taurus, UniProt P80457); test: In vitro XOD inhibitory assay; format: biochemical; conditions: XOD from milk, xanthine substrate, PBS pH 7.4, 37 °C, absorbance 295 nm, mean ± SD, n = 3; as restated in section 3.5.1; read-out: IC50 for XOD (three-decimal values)
T1 construct: Xanthione oxidase (XOD) from milk; purchased Solarbio Co., Ltd. (Beijing, China); host or cells: milk
T1 sequence (P80457 whole entry): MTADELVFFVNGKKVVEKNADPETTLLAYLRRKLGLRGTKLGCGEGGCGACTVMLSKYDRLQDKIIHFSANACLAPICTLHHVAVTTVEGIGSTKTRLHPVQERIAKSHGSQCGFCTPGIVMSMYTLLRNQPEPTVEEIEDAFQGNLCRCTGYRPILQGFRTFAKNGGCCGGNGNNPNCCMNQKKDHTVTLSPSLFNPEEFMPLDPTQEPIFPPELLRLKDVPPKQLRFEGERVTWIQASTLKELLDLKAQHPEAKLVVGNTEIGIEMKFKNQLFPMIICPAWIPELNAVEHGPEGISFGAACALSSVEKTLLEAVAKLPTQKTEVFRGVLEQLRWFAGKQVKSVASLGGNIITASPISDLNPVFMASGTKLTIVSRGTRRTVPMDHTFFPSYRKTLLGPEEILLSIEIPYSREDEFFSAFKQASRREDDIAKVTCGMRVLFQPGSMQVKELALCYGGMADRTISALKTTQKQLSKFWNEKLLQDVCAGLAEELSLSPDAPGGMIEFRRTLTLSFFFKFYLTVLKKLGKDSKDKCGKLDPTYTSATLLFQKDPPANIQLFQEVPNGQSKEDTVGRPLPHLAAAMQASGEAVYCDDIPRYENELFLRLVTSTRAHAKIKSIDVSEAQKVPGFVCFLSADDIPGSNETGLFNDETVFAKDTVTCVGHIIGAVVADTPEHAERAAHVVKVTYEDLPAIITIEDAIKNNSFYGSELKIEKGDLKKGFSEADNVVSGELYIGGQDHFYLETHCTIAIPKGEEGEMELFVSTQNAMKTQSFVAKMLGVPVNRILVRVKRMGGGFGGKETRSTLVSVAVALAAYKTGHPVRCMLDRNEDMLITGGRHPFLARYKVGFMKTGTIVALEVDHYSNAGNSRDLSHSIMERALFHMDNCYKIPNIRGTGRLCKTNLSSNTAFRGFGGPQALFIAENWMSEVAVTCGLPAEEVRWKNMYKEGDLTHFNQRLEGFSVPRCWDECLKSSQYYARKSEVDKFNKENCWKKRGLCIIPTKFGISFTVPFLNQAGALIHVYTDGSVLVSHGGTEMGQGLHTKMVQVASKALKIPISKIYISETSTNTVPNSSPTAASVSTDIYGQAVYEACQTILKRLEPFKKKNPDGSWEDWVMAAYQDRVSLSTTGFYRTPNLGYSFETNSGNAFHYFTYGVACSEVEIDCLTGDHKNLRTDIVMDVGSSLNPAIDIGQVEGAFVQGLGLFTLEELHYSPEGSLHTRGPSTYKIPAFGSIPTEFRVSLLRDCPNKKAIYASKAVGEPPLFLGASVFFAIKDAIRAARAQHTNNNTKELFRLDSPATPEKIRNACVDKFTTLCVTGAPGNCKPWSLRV
From the text: Xanthione oxidase (XOD) from milk, 1,1-Diphenyl-2-picrylhydrazyl (DPPH), 2,2′-azino-bis(3-ethylbenzothiazoline-6-sulfonic acid) (ABTS), a xanthine oxidase assay kit, and glutathione (GSH) were purchased from Solarbio Co., Ltd. (Beijing, China). Allopurinol was purchased from Aladdin Co. Ltd. (Shanghai, China). UA was purchased from Sigma-Aldrich Co. LLC. (St. Louis, MO, USA). A Cell Counting Kit-8 (CCK-8) was obtained from APExBIO Technology LLC. (Houston, TX, USA). Other chemicals were provided by Sinopharm Chemical Reagent Co., Ltd. (Shanghai, China) and were of analytical grade.
The in vitro XOD inhibitory assay was carried out by adopting the approach of Zhao et al., with minor alterations. Xanthine and XOD were, respectively, dissolved in phosphate-buffered solution (PBS, with a pH value of 7.4) at concentrations of 1.5 mM and 0.1 U/mL. Peptides of different concentrations (10, 20, 40, 80, and 160 mM) were dissolved in the PBS. A total of 120 μL of the sample solution, 150 μL of PBS, and 100 μL of XOD solution were combined and allowed to react thoroughly at 37 °C for 15 min. Subsequently, 120 μL of xanthine solution was added and the reaction was continued for an additional 20 min. Eventually, 150 μL of 1 M HCl was added to halt further enzymatic activity, and the absorbance was determined at 295 nm by means of an ultraviolet spectrophotometer (TU-1810PC, Purkinje, Beijing, China). The XOD inhibition rate was calculated according to Equation (1).XOD inhibition rate (%) = [1 − (A1 − A3)/(A2 − A4)] × 100%(1) where A1 is the absorbance after the mixed reaction of the inhibitor, XOD, and xanthine; A2 is the absorbance after the reaction of xanthine and XOD without adding the inhibitor; A3 is the absorbance of the sample and xanthine without adding XOD; and A4 is the absorbance of the xanthine solution without adding XOD and the inhibitor. […]

HK-2 cells [1] = test system: HK-2 cells
From the text: HK-2 cells were procured from the National Collection of Authenticated Cell Cultures (SCSP-511, Shanghai, China). The cytotoxicity of the peptides was appraised through a CCK-8 assay in line with the methodology of Gan, Cao, Cai, Xiang, Li, and Luan [30]. HK-2 cells were inoculated in 96-well plates (3 × 10^4 cells per well) and cultivated in Dulbecco’s Modified Eagle Medium (DMEM; provided by Life Technologies Corp., New York, NY, USA) supplemented with 10% fetal bovine serum (FBS; from Life Technologies Corp., New York, NY, USA) at 37 °C in an atmosphere containing 5% CO2 for a duration of 24 h. Peptides were introduced into the wells, and, following a 24 h incubation period, 10 μL of CCK-8 reagent was added to each well and incubated for 1 h. The absorbance was gauged at 450 nm using a microplate reader (Spark, Tecan, Austria).

GLUT9 = GLUT9 urate transport / protein expression at the cellular level (Western blot); format: cell-based; conditions: HK-2 cells
From the text: (§1) The protein expressions of URAT1 and GLUT9 within cells were detected by means of Western blot, in accordance with the method of Mao, Jiang, and Mao [32]. The primary antibodies were as follows: URAT1 (1:1000; Cat#14937-1AP; Proteintech, Wuhan, China), GLUT9 (1:1000; Cat#ab223470; Abcam, Shanghai, China), and β-actin (1:5000; Cat#ab6276; Abcam). The secondary antibodies were as follows: Goat Anti-Mouse IgG H&L (HRP) (Cat#ab205719; Abcam) and Goat Anti-Rabbit IgG H&L (HRP) (Cat#ab6721; Abcam). The protein levels were quantitatively gauged using ImageJ software (1.8.0.112).

URAT1 = URAT1 urate transport / protein expression at the cellular level (Western blot); format: cell-based; conditions: HK-2 cells
From the text: as §1

HK-2 cells [2] = test: Uric acid (UA) level in hyperuricemia HK-2 cell model; format: cell-based; conditions: 24 h, then 2.5 mM adenosine 30 h and XOD 12 h, n = 3
Protocol: The cell modeling process was carried out by following the method of Mao et al., with certain modifications. HK-2 cells were cultured in DMEM supplemented with 10% FBS at 37 °C under a 5% CO2 environment for 24 h. […] The control group and the model group were also cultured in the medium for the same period of time. Subsequently, the experimental group, the positive group, and the model group were incubated with 2.5 mM adenosine for 30 h and then further incubated with XOD (at a concentration of 0.005 U/mg) for 12 h. The content and concentration of UA in the cell supernatant were measured using a XOD assay kit.

Compound: NC(=O)CC[C@H](N)C(=O)N1CCC[C@H]1C(=O)N[C@@H](CO)C(=O)N[C@@H](Cc1ccccc1)C(=O)O [QPSF] (H-QPSF-OH)
- IC50 (XOD): 38.4 ± 7.25 mM
- cell viability of HK-2 at higher doses (HK-2 cells [1]): slight reductions in cell viability

Compound: C[C@H](N)C(=O)NCC(=O)N[C@@H](Cc1ccccc1)C(=O)O [AGF] (H-Ala-Gly-Phe-OH)
- IC50 (XOD): 48.6 ± 9.95 mM
- cell viability of HK-2 at higher doses (HK-2 cells [1]): slight reductions in cell viability

Compound: N[C@@H](CC(=O)O)C(=O)N[C@@H](Cc1ccccc1)C(=O)O [DF] (H-Asp-Phe-OH; N-terminus and C-terminus assumed)
- reduction of urate transport by GLUT9 in cells (GLUT9): can effectively diminish the transport of urate by GLUT9 within cells
- cell viability of HK-2 at higher doses (HK-2 cells [1]): slight reductions in cell viability
- reduction of urate transport by URAT1 in cells (URAT1): can curtail the transport of urate by URAT1 in cells
- reduction of UA levels in HK-2 cells, peptides (HK-2 cells [2]; peptide 4 mM (section 3.4)): 45.57%

Compound: AGDDAPR [AGDDAPR]
- IC50 (XOD): 66 ± 10.9 mM
- cell viability of HK-2 at higher doses (HK-2 cells [1]): slight reductions in cell viability

Compound: Oc1ncnc2[nH]ncc12 [allopurinol, reference compound]
- reduction of UA levels in HK-2 cells, allopurinol (HK-2 cells [2]; 0.1 mM allopurinol): 52.25%

— article PMC11817512, “In Slico Screening and In Vitro Identification of Hyperuricemia-Inhibiting Peptides from Trachurus japonicus” (Foods, 2025)
